Earlier results, collected in patent US10597401B2, “Methods and intermediates for the preparation of omacetaxine and cephalotaxine derivatives thereof” (ALBANY MOLECULAR RESEARCH, INC., priority 2015, dated 2020).

Conditions: background statement, no test described

In the case of `COC1=C[C@]23CCCN2CCc2cc4c(cc2[C@@H]3[C@@H]1O)OCO4` [cephalotaxine], the biological activity is given as “biologically inactive”.
